Reference: publication PMC9412875, “^64Cu-DOTHA2-PSMA, a Novel PSMA PET Radiotracer for Prostate Cancer with a Long Imaging Time Window” (Pharmaceuticals, 2022)

Columns and labels:
[1] = Plasma stability (ex vivo) and protein binding in mouse serum/plasma; format: in vitro ADME; settings: for 64Cu released from Proteins / 64Cu-DOTHA2-PSMA Released from Proteins: after 10% TFA; for proportion of free 64Cu: excess natCu-DOTHA2-PSMA
Experimental: Plasma stability studies were carried out by incubating ^64Cu-DOTHA2-PSMA (50 MBq in 250 μL PBS buffer) in 250 μL of mouse serum at 37 °C for up to 24 h. The plasma was then mixed twice with ethanol (1:1) to precipitate all the proteins. The samples were subjected to vortex mixing for 1 min and then centrifugation for 10 min at 7000 rpm. Plasma proteins were separated from the soluble component by ultracentrifugation and the radioactivity was assessed. The supernatant fraction was assayed by radio-TLC on C18 plates and by UPLC; free ^64Cu(OAc)2 and ^64Cu-DOTHA2-PSMA were used as standards. The radio-TLCs were eluted with 0.1 M sodium citrate buffer at pH 5.5 using an Instant Imager system (BioScan, DC, U.S.A.) for radiodetection. The precipitated proteins were again subjected to 10% TFA, vortexed for 2–3 min, and then centrifuged for 10 min at 7000 rpm. The separation and analysis for the supernatant and the proteins were performed in the same manner.
The protein binding ability was evaluated by incubating ^64Cu-DOTHA2-PSMA (100 MBq) in phosphate buffer (250 μL, pH 7) at 37 °C and fresh mouse serum (250 μL) and for 1 h, 4 h, and 24 h. Plasma proteins were precipitated by the addition of ethanol (1:1, v/v) to the plasma samples, followed by centrifugation at 7000 rpm for 5 min at room temperature and separation of the supernatant. This process was repeated three times with the same volume of ethanol, and the supernatants were pooled. The radioactivity content of the supernatant and the precipitated protein were measured in a dose calibrator to obtain the protein binding percentage.

[2] = system: LNCaP cells; experiment: Cellular efflux assay; format: cell-based, human
Experimental: Here, 12-well polylysine-coated Cellbind plates were seeded with 150 × 10^3 LNCaP cells with 1.75 mL of cell media. At 70–100% confluence (3 days of growth), the cell medium was changed and 37 kBq of ^64Cu-DOTHA2-PSMA in 1 mL of cell medium was added to each well of group 1 and 160 kBq to each of group 2.
For efflux assays, after adding ^64Cu-DOTHA2-PSMA, cells were incubated for 60 min for the time points 15 min to 4 h (group 1) and incubated for 4 h for the time points 4 h to 48 h (group 2). After incubation, the medium was removed, cells were washed with 1 mL of cold PBS, 1 mL of cell media was added and, similarly to uptake and internalization, cells were again incubated in nonradioactive media for 0, 15, 30, 45, 60 min, 2 h, 4 h (group 1) and 4 h, 8 h, 24 h, 32 h or 48 h (group 2) (3 wells per time point). After respective incubation times per well, the medium was removed, and cells were washed with 1 mL of cold PBS, then removed from the well with 1 mL of trypsin to measure the residual radioactivity by gamma counter. The results of residual activity were expressed as percentage of the 1 h (Group 1) or 4 h (Group 2) uptake activity (0 min of efflux time-point) as a function of time for 10^6 cells.
All the assays were performed at least 3 times, each with different ^64Cu-DOTHA2-PSMA production and cell passage. Cells were counted in 3 wells for each protocol (uptake, internalization, and efflux) on day 1 and day 3 of each experiment and an average for cells numbers at day 2.

[3] = Balb/c mice biodistribution; format: in vivo
Experimental: ^64Cu-DOTHA2-PSMA biodistribution was assessed in balb/c mice (n = 30) by harvesting blood and organs at 1 h, 2 h, 4 h, 24 h, and 48 h p.i. to measure tissue radioactivity and weight. Results were reported as the %IA/g of tissue and compared with the radiotracer used for clinical imaging in our facility, ^68Ga-PSMA-617.
Balb/c mice (n = 30) were injected with a bolus of ^64Cu-DOTHA2-PSMA by the tail vein (in 0.3 mL of saline: 3 MBq for 1 h, 2 h, and 4 h p.i., 7.5 MBq for 24 h p.i. and 21 MBq for 48 h p.i.). Injected activity had to be increased for later time points to ensure reliable detection and reliability in organs with a low uptake, e.g., the brain. At all timepoints, blood was collected using a heparin-coated syringe by femoral vein puncture and mice were then euthanized and dissected. Harvested tissues were rinsed, blotted dry, and then weighted and counted in gamma counter. The results are reported as the %IA per gram of tissue. The biodistribution results were compared with the ^68Ga-PSMA-617 results obtained by our team at 1 h and 2 h p.i.

[4] = ex vivo, mouse plasma, 100 equiv. natCu-DOTHA2-PSMA, 1 h
[5] = ex vivo, mouse plasma, 100 equiv. natCu-DOTHA2-PSMA, 4 h
[6] = ex vivo, mouse plasma, 100 equiv. natCu-DOTHA2-PSMA, 24 h

For CN([O-])C(=O)CN1CCN(CC(=O)NCC2CCC(C(=O)NC(Cc3ccc4ccccc4c3)C(=O)NCCCCC(NC(=O)NC(CCC(=O)O)C(=O)O)C(=O)O)CC2)CCN(CC(=O)N(C)[O-])CCN(CC(=O)N(C)O)CC1.[64Cu+2] (stereo not drawn) [^64Cu-DOTHA2-PSMA], which “demetallation or degradation in mouse serum (radio-UPLC, radio-TLC)” value ([1]; 37 °C, up to 24 h) is on record?
The value was “No major demetallation or degradation”.

What about the “change of signal bound to plasma proteins on adding excess natCu-DOTHA2-PSMA” value ([1]; ex vivo, 4 h) of the same compound?
The value was 1%.

What about the “change of signal bound to plasma proteins on adding excess natCu-DOTHA2-PSMA” value ([1]; ex vivo, 24 h) of the same compound?
Its value is 6%.

What about the “64Cu in the Supernatant” value ([1]; ex vivo, mouse plasma 37 °C, 1 h, % of total signal) of the same compound?
Its value is 0%.

What about the “64Cu in the Supernatant” value ([1]; ex vivo, mouse plasma 37 °C, 4 h, % of total signal) of the same compound?
The value was 1.98%.

And the “64Cu in the Supernatant” value ([1]; ex vivo, mouse plasma 37 °C, 24 h, % of total signal)?
The value was 1.28%.

And the “64Cu and 64Cu-DOTHA2-PSMA Bound to Plasma Proteins” value (“64Cu and 64Cu-DOTHA2-PSMA Bound” below) [1, 4]?
Its value is 24%.

What about the “64Cu in the Supernatant” value [1, 4] of the same compound?
The value was 0%.

And the “64Cu released from Proteins” value [1, 4]?
The value was 0.82%.

And the “64Cu and 64Cu-DOTHA2-PSMA Bound” value [1, 5]?
Its value is 33%.

What about the “64Cu in the Supernatant” value [1, 5] of the same compound?
The value was 3.35%.

And the “64Cu released from Proteins” value [1, 5]?
Its value is 0.84%.

And the “64Cu and 64Cu-DOTHA2-PSMA Bound” value [1, 6]?
The value was 30%.

And the “64Cu in the Supernatant” value [1, 6]?
Its value is 5.60%.

And the “64Cu released from Proteins” value [1, 6]?
The value was 2.14%.

And the “64Cu and 64Cu-DOTHA2-PSMA Bound” value ([1]; ex vivo, mouse plasma, 1 h)?
Its value is 24%.

What about the “signal attributed to free 64Cu overall (supernatant and precipitate)” value ([1]; ex vivo, mouse plasma, 1 h) of the same compound?
The value was 0.79%.

And the “64Cu-DOTHA2-PSMA Released from Proteins” value ([1]; ex vivo, mouse plasma, 1 h)?
The value was 15%.

And the “64Cu released from Proteins” value ([1]; ex vivo, mouse plasma, 1 h, % of total signal)?
Its value is 0.79%.

What about the “64Cu and 64Cu-DOTHA2-PSMA Bound” value ([1]; ex vivo, mouse plasma, 4 h) of the same compound?
Its value is 34%.

What about the “signal attributed to free 64Cu overall (supernatant and precipitate)” value ([1]; ex vivo, mouse plasma, 4 h) of the same compound?
Its value is 2.62%.

And the “64Cu-DOTHA2-PSMA Released from Proteins” value ([1]; ex vivo, mouse plasma, 4 h)?
Its value is 21%.

And the “64Cu released from Proteins” value ([1]; ex vivo, mouse plasma, 4 h, % of total signal)?
Its value is 0.64%.

What about the “64Cu and 64Cu-DOTHA2-PSMA Bound” value ([1]; ex vivo, mouse plasma, 24 h) of the same compound?
The value was 36%.

And the “free 64Cu, share of the plasma supernatant signal (UPLC)” value ([1]; ex vivo, mouse plasma, 24 h)?
The value was “less than 3%”.

What about the “64Cu-DOTHA2-PSMA Released from Proteins” value ([1]; ex vivo, mouse plasma, 24 h) of the same compound?
Its value is 21%.

What about the “64Cu released from Proteins” value ([1]; ex vivo, mouse plasma, 24 h, % of total signal) of the same compound?
Its value is 0.65%.

And the “proportion of free 64Cu” value ([1]; ex vivo, mouse plasma, 1 h)?
Its value is 0.82%.

What about the “proportion of free 64Cu” value ([1]; ex vivo, mouse plasma, 4 h) of the same compound?
The value was 4.19%.

And the “proportion of free 64Cu” value ([1]; ex vivo, mouse plasma, 24 h)?
Its value is 7.75%.

And the “Retained activity normalized to time 0” value ([2]; 1h incubation, efflux time 0.25 h)?
The value was 100.93%.

What about the “Retained activity normalized to time 0” value ([2]; 1h incubation, efflux time 0.50 h) of the same compound?
Its value is 105.51%.

What about the “Retained activity normalized to time 0” value ([2]; 1h incubation, efflux time 0.75 h) of the same compound?
Its value is 94.38%.

What about the “Retained activity normalized to time 0” value ([2]; 1h incubation, efflux time 1 h) of the same compound?
Its value is 77.52%.

And the “Retained activity normalized to time 0” value ([2]; 1h incubation, efflux time 2 h)?
Its value is 80.95%.

And the “Retained activity normalized to time 0” value ([2]; 1h incubation, efflux time 4 h)?
Its value is 64.04%.

What about the “Retained activity normalized to time 0” value ([2]; 4h incubation, efflux time 4 h) of the same compound?
The value was 66.23%.

What about the “Retained activity normalized to time 0” value ([2]; 4h incubation, efflux time 8 h) of the same compound?
The value was 51.88%.

What about the “Retained activity normalized to time 0” value ([2]; 4h incubation, efflux time 24 h) of the same compound?
Its value is 35.10%.

And the “Retained activity normalized to time 0” value ([2]; 4h incubation, efflux time 32 h)?
The value was 34.27%.

And the “Retained activity normalized to time 0” value ([2]; 4h incubation, efflux time 48 h)?
The value was 48.61%.

And the “kidney uptake difference to 68Ga-PSMA-617 (lower)” value ([3]; 2 h p.i.)?
The value was 23.3%.

And the liver uptake ([3]; 2 h p.i.)?
The liver uptake was 29.9 ± 5.0 % IA/g.

What about the “liver uptake (peak)” value ([3]; 4 h p.i.) of the same compound?
The value was 30.2 ± 4.2 % IA/g.

And the “uptake in the kidneys (highest over time points)” value ([3]; up to 48 h p.i.)?
Its value is “at most 15.8 ± 7.0 % IA/g”.
